Data as given in patent publication US12622878B2, “Cationic lipid having cystine skeleton” (NOF CORPORATION, priority 2020, dated 2026).

What was measured:
[1] = Measurement of Liposomal pKa (TNS fluorescence) of LNP without nucleic acid; assay type: physicochemical; conditions: cationic lipid:DOPC:Chol=52.5:7.5:40 + about 1.5 mol DMG-PEG2k, pH at which relative TNS fluorescence intensity was 50%
Protocol: Lipid nano particles (LNP) without containing nucleic acid were used for the evaluation of Liposomal pKa.
(§1) A 10 mM ethanol solution of cationic lipid, a 5 mM ethanol solution of DOPC, and a 10 mM ethanol solution of Chol were mixed at desired ratio (cationic lipid:DOPC:Chol=52.5:7.5:40 (molar ratio)) in an Eppendorf tube to achieve the total lipid amount of 720 nmol. To the obtained mixture was further added DMG-PEG2k (2 mM ethanol solution) in an amount of about 1.5 mol with respect to the total amount 100 mol of cationic lipid, DOPC, and Chol, and then ethanol was added to prepare an ethanol solution of the lipid (total amount: 360 μL).
(§2) An acidic malic acid buffer (20 mM, pH 3.0) (1080 μL) containing NaCl at a final concentration of 30 mM and an ethanol solution (360 μL) of lipid were each weighed in a syringe. Using an ultra high-speed nanomedicament producing apparatus NanoAssmblr (manufactured by Precision NanoSystems), LNP was prepared under the conditions of addition rate of acidic buffer solution: 3 mL/min, addition rate of ethanol solution of lipid: 1 mL/min, and syringe holder temperature: 25° C., and collected in a 15 mL tube. MES buffer (pH 6.5) (3000 μL) was added to the 15 mL tube, the obtained mixture was transferred to Amicon Ultra 4, and ultrafiltration was performed under centrifugation conditions (25° C., 1000 g, 6 min) to concentrate the mixture to about 100 μL. The obtained concentrate was diluted with PBS to 4 mL, and the mixture was concentrated again under centrifugation conditions (25° C., 1000 g, 6 min), and this operation was performed twice. The obtained concentrate was diluted with PBS to a lipid concentration of 0.5 mM to give a dispersion containing LNP.
20 mM Citrate buffer, sodium phosphate buffer, and tris HCl buffer, each containing NaCl at a final concentration of 150 mM and adjusted to various pHs within the range of pH 3.0 to 10.0, were prepared. TNS (manufactured by Sigma) was diluted with ultrapure water to 0.6 mM. TNS solution (2 μL), dispersions (12 μL) containing LNP prepared in [Experimental Example 1], 1, and buffers adjusted to various pHs (186 μL) were added to a black 96 well plate. The plate was protected from light and shaken at 400 rpm for 10 min. The fluorescence intensity (excitation: 321 nm/emission: 447 nm) was measured using a plate reader (manufactured by TECAN). The relative fluorescence intensity was calculated as a percentage, with the maximum value of the fluorescence intensity in each LNP being 100% and the minimum value being 0%. Furthermore, the pH at which the relative fluorescence intensity was 50% was taken as Liposomal pKa.

[2] = Particle size, PdI and zeta potential of mRNA-encapsulating LNPs by dynamic light scattering; assay type: physicochemical; conditions: FLuc mRNA-encapsulating LNP, cationic lipid:DOPC:Chol=55:5:40 + about 1 mol DMG-PEG2k; for PdI / particle size: dynamic light scattering; for zeta potential: physiological pH
Protocol: as §1, with “lipid:DOPC:Chol=55:5:40” for “lipid:DOPC:Chol=52.5:7.5:40”, “1” for “1.5”
An acidic buffer solution (total amount: 1080 μL) of nucleic acid was prepared by weighing 7.2 μg of mRNA solution (0.6 mg/mL) (CleanCap (registered trade mark) FLuc mRNA (TriLink)) in a 5 mL tube and adding acidic malate buffer (20 mM, pH 3.0) containing NaCl at a final concentration of 30 mM.
as §2, with “buffer solution of nucleic” for “malic”, “acid” for “acid buffer (20 mM, pH 3.0) (1080 μL) containing NaCl at a final concentration of 30 mM”, “solution” for “solution (360 μL)”, “solution of nucleic acid:” for “solution:”, “2” for “0.5”
The particle size, PdI (Polydispersity Index, Polydispersity), and zeta potential of the mRNA-encapsulating LNP prepared by the method of the above-mentioned 1 were measured by a dynamic light scattering method.

Jurkat cells = test: In vitro gene expression (luciferase mRNA) in Jurkat cells; assay type: cell-based, human; conditions: FLuc mRNA-encapsulating LNP, 0.4 μg mRNA, FIG. 1
Protocol: (§3) LNP encapsulating mRNA (CleanCap (registered trade mark) FLuc mRNA (TriLink)) that expresses luciferase (cationic lipid:DOPC:Chol:DMG-PEG2k=55:5:40:1 (molar ratio)) was prepared by the method described in [Experimental Example 2], 1.
Jurkat cells, which are human leukemia T cells, were seeded in a 3.5 cm dish at 2.0×10^5 cells/1.8 mL/Dish 24 hours before transfection. After 24 hr, a medium (RPMI1640) (200 μL) supplemented with D-luciferin was added to the dish at final concentration of 0.1 mM. Each mRNA-encapsulating LNP dispersion (40 to 120 μL) (0.4 μg as mRNA) was added to the aforementioned dish, and the aforementioned dish was set in an incubator luminometer KronosDio. The luminescence intensity of luciferase was measured for 2 min every three hours. The cumulative luciferase luminescence intensity for 24 hr was calculated from the obtained time change of expression. For example, “5.0E+05” means “5.0×10^5”.

BALB/c mouse = test: In vivo gene expression (luciferase mRNA), organ luminescence by IVIS; conditions: tail vein, 0.05 mg mRNA per kg, 4.5 hr after administration, liver and spleen, FIG. 2
Protocol: as §3
The prepared each mRNA-encapsulating LNP dispersion was administered from the tail vein of BALB/c mouse (male, 5-week-old). The dose of mRNA was set to 0.05 mg per 1 kg body weight of the mouse, and the dose of the mRNA-encapsulating LNP dispersion was set to 10 μL per 1 g body weight of the mouse. After 4.5 hr from the administration of the mRNA-encapsulating LNP dispersion, a PBS solution of D-luciferin potassium was administered into the abdominal cavity of the mouse. The dose of D-luciferin potassium was set to 3 mg per mouse, and the dose of the PBS solution of D-luciferin potassium was set to 200 μL per mouse. After 15 min from the administration of the PBS solution of D-luciferin potassium, the mouse was euthanized, and the liver, spleen, kidney, heart, and lung were isolated. The luminescence in each organ was quantified using an in vivo imaging system (IVIS) with an exposure of 10 sec. The amount of luminescence in each organ was quantified by image analysis using Live Imaging software attached to IVIS. The amount of luminescence (photons/sec) was calculated from the acquired image and used as an index of gene expression activity. […]

HeLa cells = test: In vitro gene expression (luciferase mRNA) in HeLa cells; assay type: cell-based, human; conditions: FLuc mRNA-encapsulating LNP, 0.4 μg mRNA, FIG. 3
Protocol: as §3
HeLa cells, which are human cervical cancer cells, were seeded in a 3.5 cm dish at 5.0×10^4 cells/2 mL/Dish 24 hours before transfection. After 24 hours, the medium was exchanged with a culture medium (D-MEM) containing 0.1 mM D-luciferin. Prepared mRNA-encapsulating LNP was diluted with PBS such that the concentration of mRNA was 8 μg/mL. The diluted mRNA-encapsulating LNP solution (50 μL, mRNA: 0.4 μg) was added to the 3.5 cm dish and set in an incubator luminometer KronosDio. The luminescence intensity of luciferase was measured for 2 min every one hour. The cumulative luciferase luminescence intensity for 24 hr was calculated from the obtained time change of expression. For example, “1.0E+06” means “1.0×10^6”.

pKa [1]	PdI [2]	particle size [2]	zeta potential [2]	Structure (SMILES)	gene expression activity (cumulative luciferase luminescence intensity for 24 hr) (Jurkat cells)	gene expression activity (amount of luminescence in organ) (BALB/c mouse)	gene expression activity (cumulative luciferase luminescence intensity for 24 hr) (HeLa cells)
5.9	0.100	111 nm	−11.2 mV	CCCCCCCC/C=C\CCCCCCCC(=O)Oc1ccc(CC(=O)OCCOC(=O)C(CSSCC(NC(=O)CN(C)CCC)C(=O)OCCOC(=O)Cc2ccc(OC(=O)CCCCCCC/C=C\CCCCCCCC)cc2)NC(=O)CN(C)CCC)cc1 (stereo not drawn) [Example 3]			
6.6	0.105	78 nm	0.01 mV	CCCCCCCC/C=C\CCCCCCCC(=O)Oc1ccc(CC(=O)OCCOC(=O)C(CSSCC(NC(=O)CN(C)C)C(=O)OCCOC(=O)Cc2ccc(OC(=O)CCCCCCC/C=C\CCCCCCCC)cc2)NC(=O)CN(C)C)cc1 (stereo not drawn) [Example 1]	superior gene expression activity	superior gene expression activity in the liver and the spleen	superior gene expression activity
6.4	0.073	82 nm	−5.02 mV	CCCCCCCC/C=C\CCCCCCCC(=O)Oc1ccc(CC(=O)OCCOC(=O)C(CSSCC(NC(=O)CN(C)CC)C(=O)OCCOC(=O)Cc2ccc(OC(=O)CCCCCCC/C=C\CCCCCCCC)cc2)NC(=O)CN(C)CC)cc1 (stereo not drawn) [Example 2]			

The next lines start with the compound.

Structure (SMILES)	pKa [1]	PdI [2]	particle size [2]	zeta potential [2]	gene expression activity (cumulative luciferase luminescence intensity for 24 hr) (Jurkat cells)	gene expression activity (amount of luminescence in organ) (BALB/c mouse)	gene expression activity (cumulative luciferase luminescence intensity for 24 hr) (HeLa cells)
CCCCCCCC/C=C\CCCCCCCC(=O)Oc1ccc(CC(=O)OCCOC(=O)C(CSSCC(NC(=O)CN(CCC)CCC)C(=O)OCCOC(=O)Cc2ccc(OC(=O)CCCCCCC/C=C\CCCCCCCC)cc2)NC(=O)CN(CCC)CCC)cc1 (stereo not drawn) [Example 5]	5.3	0.162	112 nm	−12.4 mV			
CCCCCCCC/C=C\CCCCCCCC(=O)Oc1ccc(CC(=O)OCCOC(=O)C(CSSCC(NC(=O)CN(CC)CC)C(=O)OCCOC(=O)Cc2ccc(OC(=O)CCCCCCC/C=C\CCCCCCCC)cc2)NC(=O)CN(CC)CC)cc1 (stereo not drawn) [Example 4]	6.3	0.091	81 nm	−7.78 mV			
CCCCCCCC/C=C\CCCCCCCC(=O)Oc1ccc(CC(=O)OCCOC(=O)C(CSSCC(NC(=O)CN2CCCCC2)C(=O)OCCOC(=O)Cc2ccc(OC(=O)CCCCCCC/C=C\CCCCCCCC)cc2)NC(=O)CN2CCCCC2)cc1 (stereo not drawn) [Example 7]	6	0.080	126 nm	−10.3 mV			
